Here are results for 25 compounds from ChEMBL document CHEMBL3580623, “Minor Structural Change to Tertiary Sulfonamide RORc Ligands Led to Opposite Mechanisms of Action” (ACS Med Chem Lett, 2015).

The target in data set [1] is T1, Nuclear receptor ROR-gamma (Homo sapiens, UniProt P51449).
T1 sequence (P51449 whole entry): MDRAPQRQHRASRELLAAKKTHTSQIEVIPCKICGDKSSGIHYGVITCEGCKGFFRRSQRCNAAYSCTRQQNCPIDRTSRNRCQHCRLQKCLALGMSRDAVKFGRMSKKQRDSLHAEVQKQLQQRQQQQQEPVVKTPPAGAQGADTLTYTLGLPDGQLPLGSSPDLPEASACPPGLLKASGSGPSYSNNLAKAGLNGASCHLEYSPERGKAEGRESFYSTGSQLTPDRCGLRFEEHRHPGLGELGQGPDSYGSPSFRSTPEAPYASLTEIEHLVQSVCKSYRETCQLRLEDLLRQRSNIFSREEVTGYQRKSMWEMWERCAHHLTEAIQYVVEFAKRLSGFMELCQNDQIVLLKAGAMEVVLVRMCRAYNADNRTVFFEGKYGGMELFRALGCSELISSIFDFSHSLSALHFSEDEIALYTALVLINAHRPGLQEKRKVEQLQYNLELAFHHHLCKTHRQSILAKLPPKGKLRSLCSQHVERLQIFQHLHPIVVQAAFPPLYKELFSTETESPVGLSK
In kind it is functional.

Data set [2] deals with T1, Nuclear receptor ROR-gamma. Type of data set: functional. The source holds these as a separate data set.
Data set [3] concerns the target T1, Nuclear receptor ROR-gamma.
Description: Displacement of [3H2]-25-hydroxycholesterol from N-terminal 6xHis-tagged human RORc ligand binding domain (241 to 486) expressed in bacterial expression system after 3 hrs by scintillation counting analysis
For data set [4], the system named is PBMC. Kind of data set: Cytotoxicity against human PBMC assessed as effect on cell physiology after 48 hrs by CellTiter-Glo assay. Type of data set: cell-based.
Data set [5] deals with PBMC. Kind of data set: Effect on IFNgamma production in human PBMC cells after 48 hrs by sandwich ELISA method. In kind it is functional, cell-based. A general note: ELISA stands for enzyme-linked immunosorbent assay.
In data set [6] the test system is PBMC. Nature of the data set: Inhibition of IL17 production in human PBMC cells after 48 hrs by sandwich ELISA method relative to control. Type of data set: functional.
Data set [7] deals with PBMC. Kind of data set: Inhibition of IL17 production in human PBMC cells after 48 hrs by sandwich ELISA method. Type of data set: functional, cell-based.
The target of data set [8] is T2, Oxysterols receptor LXR-alpha (Homo sapiens, UniProt Q13133).
T2 sequence (Q13133 whole entry): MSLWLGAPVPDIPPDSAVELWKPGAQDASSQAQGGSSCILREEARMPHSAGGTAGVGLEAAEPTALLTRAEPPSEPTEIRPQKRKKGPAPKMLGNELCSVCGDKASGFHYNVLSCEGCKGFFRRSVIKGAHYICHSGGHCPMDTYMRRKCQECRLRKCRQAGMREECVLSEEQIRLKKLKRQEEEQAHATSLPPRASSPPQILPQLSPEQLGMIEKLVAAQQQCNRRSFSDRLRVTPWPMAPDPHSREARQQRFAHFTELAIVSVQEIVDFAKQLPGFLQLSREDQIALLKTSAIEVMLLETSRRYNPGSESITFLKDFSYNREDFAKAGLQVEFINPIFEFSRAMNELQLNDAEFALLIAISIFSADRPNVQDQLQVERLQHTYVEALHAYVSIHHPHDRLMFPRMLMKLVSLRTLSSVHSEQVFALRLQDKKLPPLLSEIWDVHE
Kind of data set: Antagonist activity at GAL4-fused human LXRalpha expressed in HEK293T cells assessed as inhibition of agonist-induced transcriptional activity after 20 hrs by dual-glo luciferase reporter gene assay. A general note: A reporter such as luciferase makes a cellular process visible.

Another data set has as its target T3, Bile acid receptor (Homo sapiens, UniProt Q96RI1).
T3 sequence (Q96RI1 whole entry): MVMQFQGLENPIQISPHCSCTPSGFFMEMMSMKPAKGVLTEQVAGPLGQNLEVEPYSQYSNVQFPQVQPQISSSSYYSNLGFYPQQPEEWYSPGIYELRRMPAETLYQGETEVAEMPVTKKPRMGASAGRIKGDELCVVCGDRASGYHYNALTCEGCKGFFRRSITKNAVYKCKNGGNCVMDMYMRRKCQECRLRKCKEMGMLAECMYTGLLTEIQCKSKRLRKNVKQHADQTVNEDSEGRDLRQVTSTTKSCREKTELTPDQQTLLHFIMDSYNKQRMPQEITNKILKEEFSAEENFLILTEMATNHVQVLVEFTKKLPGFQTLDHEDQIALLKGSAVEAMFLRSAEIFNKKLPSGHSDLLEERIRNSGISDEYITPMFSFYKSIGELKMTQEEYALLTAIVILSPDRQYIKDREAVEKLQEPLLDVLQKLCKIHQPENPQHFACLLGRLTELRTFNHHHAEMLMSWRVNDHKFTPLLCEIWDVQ
Kind of data set: Antagonist activity at GAL4-fused human FXR expressed in HEK293T cells assessed as inhibition of agonist-induced transcriptional activity after 20 hrs by dual-glo luciferase reporter gene assay.

The target of data set [9] is T4, Nuclear receptor subfamily 1 group I member 2 (Homo sapiens, UniProt O75469).
T4 sequence (O75469 whole entry): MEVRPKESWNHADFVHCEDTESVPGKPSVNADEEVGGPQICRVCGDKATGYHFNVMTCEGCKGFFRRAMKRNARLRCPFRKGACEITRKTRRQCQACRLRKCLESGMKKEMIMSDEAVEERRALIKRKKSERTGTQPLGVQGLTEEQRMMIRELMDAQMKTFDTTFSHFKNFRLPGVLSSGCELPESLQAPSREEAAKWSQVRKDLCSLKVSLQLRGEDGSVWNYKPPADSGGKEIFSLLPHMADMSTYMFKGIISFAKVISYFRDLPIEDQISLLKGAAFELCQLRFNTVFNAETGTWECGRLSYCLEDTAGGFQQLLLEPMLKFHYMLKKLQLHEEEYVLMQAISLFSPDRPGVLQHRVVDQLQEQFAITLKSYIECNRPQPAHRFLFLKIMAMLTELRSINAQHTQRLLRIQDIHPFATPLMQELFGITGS
Kind of data set: Agonist activity at GAL4-fused human PXR expressed in HEK293T cells assessed as activation of basal transcriptional activity after 20 hrs by dual-glo luciferase reporter gene assay. Type of data set: cell-based. To be noted: hek-293t.

Data set [10] concerns the target T1, Nuclear receptor ROR-gamma. Nature of the data set: Inverse agonist activity at GAL4-fused human RORc expressed in HEK293T cells assessed as suppression of basal transcriptional activity after 20 hrs by dual-glo luciferase reporter gene assay. In kind it is functional, cell-based, HEK-293T.
Data set [11] has as its target T5, Nuclear receptor ROR-beta (Homo sapiens, UniProt Q92753).
T5 sequence (Q92753 whole entry): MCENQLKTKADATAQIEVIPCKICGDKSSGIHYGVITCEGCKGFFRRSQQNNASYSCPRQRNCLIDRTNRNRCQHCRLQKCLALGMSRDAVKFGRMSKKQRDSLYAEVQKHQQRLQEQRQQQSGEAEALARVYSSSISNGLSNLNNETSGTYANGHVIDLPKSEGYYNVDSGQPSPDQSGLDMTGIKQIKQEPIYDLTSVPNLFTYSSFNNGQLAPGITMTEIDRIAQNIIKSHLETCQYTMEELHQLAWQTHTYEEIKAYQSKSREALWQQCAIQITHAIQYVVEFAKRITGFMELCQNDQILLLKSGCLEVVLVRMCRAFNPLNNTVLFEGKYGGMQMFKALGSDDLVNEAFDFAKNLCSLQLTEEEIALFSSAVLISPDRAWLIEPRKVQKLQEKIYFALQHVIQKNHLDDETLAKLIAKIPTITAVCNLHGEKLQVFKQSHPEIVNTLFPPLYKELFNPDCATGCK
Kind of data set: Inverse agonist activity at GAL4-fused human RORb expressed in HEK293T cells assessed as suppression of basal transcriptional activity after 20 hrs by dual-glo luciferase reporter gene assay. In kind it is cell-based, HEK-293T.

For data set [12], the system named is PBMC. Kind of data set: Induction of IL17 production in human PBMC cells after 48 hrs by sandwich ELISA method relative to control. Type of data set: functional.
The test system of data set [13] is PBMC. Nature of the data set: Induction of IL17 production in human PBMC cells after 48 hrs by sandwich ELISA method. In kind it is functional, cell-based.

A word on the EC50: it is the concentration giving half of the maximal effect. Regarding `CC(=O)N1CCN(c2ccc(CN(C3CCC3)S(=O)(=O)c3cc(Cl)cc(Cl)c3)c(F)c2)CC1`, the midpoint of the response in [1], the EC50, lay at 6 nM.
In [1], `COc1cccc(S(=O)(=O)N(Cc2ccc(N3CCN(C(C)=O)CC3)cc2F)C2CCC2)c1` yielded an EC50 of 26 nM.
Compound `CC(=O)N1CCN(c2ccc(CN(C3CCC3)S(=O)(=O)c3ccc(C(C)(C)C)cc3)c(F)c2)CC1` registered an EC50 in data set [2] of 120 nM.
Still for that read-out and setting: as for `CC(=O)N1CCN(c2ccc(CN(C3CCC3)S(=O)(=O)Cc3cccc(F)c3)c(F)c2)CC1`, the figure is 10 nM.
`CC(=O)N1CCN(c2ccc(CN(C3CCC3)S(=O)(=O)c3ccccc3Cl)c(F)c2)CC1` yielded an EC50 in data set [1] of 47 nM.
In [2], `COc1ccc(S(=O)(=O)N(Cc2ccc(N3CCN(C(C)=O)CC3)cc2F)C2CCC2)cc1` gave an EC50 of 3300 nM.
In turn, `CC(=O)N1CCN(c2ccc(CN(C3CCC3)S(=O)(=O)CCc3ccccc3)c(F)c2)CC1` came in with an EC50 in data set [2] of 310 nM.
Regarding `CC(=O)N1CCN(c2ccc(CN(C3CCC3)S(=O)(=O)c3ccc(C(F)(F)F)cc3)c(F)c2)CC1`, the EC50 in data set [2] is 300 nM.
For orientation: IC50 means the point on the concentration scale where inhibition reaches its midpoint. `CC(=O)N1CCN(c2ccc(CN(C3CCC3)S(=O)(=O)Cc3ccc(Cl)cc3)c(F)c2)CC1` gave an IC50 in [3] of 37 nM. In addition, in data set [2], the EC50 stood at 33 nM.
Regarding `CC(=O)N1CCN(c2ccc(CN(C3CCC3)S(=O)(=O)Cc3ccccc3)c(F)c2)CC1`, the EC50 in the data set with PBMC [4] was more than 20000 nM; in the data set on PBMC [5] it was more than 10000 nM; in data set [2] it was 11 nM; in the data set with PBMC [7], 350 nM. Besides, the Efficacy with PBMC [6] is -79%.
Consider `CC(=O)N1CCN(c2ccc(CN(C3CCC3)S(=O)(=O)c3ccc(OC(F)F)cc3)c(F)c2)CC1`, for which the IC50 in data set [3] was found to be 31 nM. In addition, a half-maximal response in data set [2] (EC50) required 150 nM.
Take `CC(=O)N1CCN(c2ccc(CN(C3CCC3)S(=O)(=O)c3cccc(F)c3)c(F)c2)CC1`: the response in [1] was half-maximal at 41 nM (EC50).
In data set [2], `CC(=O)N1CCN(c2ccc(CN(C3CCC3)S(=O)(=O)c3ccc(Cl)cc3Cl)c(F)c2)CC1` registered an EC50 of 220 nM.
For `CC(=O)N1CCN(c2ccc(CN(C3CCC3)S(=O)(=O)Cc3ccccc3F)c(F)c2)CC1`, the EC50 in the data set on PBMC [4] was more than 20000 nM; in the data set with PBMC [5] it was more than 10000 nM; in data set [8] it was 9200 nM; on Bile acid receptor, 6100 nM; in [10] it was 15 nM; in data set [11], 2700 nM. Moreover, the EC50 worked out at 3 nM in [2] and 320 nM in the data set with PBMC [7]. Also, the Activity entry in data set [9] is given as “Not Active”. Also, in the data set with PBMC [6], the Efficacy was -72%.
On to `CC(=O)N1CCN(c2ccc(CN(C3CCC3)S(=O)(=O)Cc3ccccc3Cl)c(F)c2)CC1`, for which, in data set [2], the midpoint of the response, the EC50, lay at 4 nM.
For the compound `CC(=O)N1CCN(c2ccc(CN(C3CCC3)S(=O)(=O)c3ccc(Cl)cc3)c(F)c2)CC1`, the EC50 in data set [2] is 190 nM.
In data set [1], `CC(=O)N1CCN(c2ccc(CN(C3CCC3)S(=O)(=O)c3cc(F)cc(F)c3)c(F)c2)CC1` displayed a concentration giving a half-maximal response (EC50) of 14 nM.
On to `CC(=O)N1CCN(c2ccc(CN(C3CCC3)S(=O)(=O)c3ccccc3F)c(F)c2)CC1`, for which the EC50 in the data set on PBMC [4] is more than 20000 nM; in the data set with PBMC [5], more than 10000 nM; in data set [1], 63 nM; with PBMC [13] it was 800 nM. Further, the Efficacy in the data set with PBMC [12] was determined as 71%.
For the compound `CC(=O)N1CCN(c2ccc(CN(C3CCC3)S(=O)(=O)Cc3cccc(Cl)c3)c(F)c2)CC1`, in data set [2], the EC50 turned out to be 9 nM.
`CC(=O)N1CCN(c2ccc(CN(C3CCC3)S(=O)(=O)c3ccccc3)c(F)c2)CC1`: the EC50 in the data set on PBMC [4] was more than 20000 nM; in the data set on PBMC [5], more than 10000 nM; in [1] it was 69 nM; with PBMC [13] it was 780 nM. Further, in the data set on PBMC [12], the Efficacy was found to be 77%.
In the case of `CC(=O)N1CCN(c2ccc(CN(C3CCC3)S(=O)(=O)c3cccc(Cl)c3)c(F)c2)CC1`, a half-maximal effect in [1] (EC50) was put at 50 nM.
`CC(=O)N1CCN(c2ccc(CN(C3CCC3)S(=O)(=O)c3ccc(OC(F)(F)F)cc3)c(F)c2)CC1` yielded an EC50 in data set [2] of 160 nM.
The compound `CC(=O)N1CCN(c2ccc(CN(C3CCC3)S(=O)(=O)Cc3cc(Cl)cc(Cl)c3)c(F)c2)CC1` yielded an EC50 in data set [2] of 40 nM.
Same read-out and setting: as for `CC(=O)N1CCN(c2ccc(CN(C3CCC3)S(=O)(=O)c3ccc(F)cc3)c(F)c2)CC1`, the figure is more than 10000 nM; as for `CC(=O)N1CCN(c2ccc(CN(C3CCC3)S(=O)(=O)Cc3ccc(F)cc3)c(F)c2)CC1`, 7 nM.
